test system: isolated rat liver mitochondria; experiment: Mitochondrial ROS production (CM-H2DCFDA); details: 1XCmax; DMSO treated samples set as 1

SMILES	ROS measured by CM-H2DCFDA at 1XCmax
CNC(=O)c1ccccc1Sc1ccc2c(/C=C/c3ccccn3)n[nH]c2c1 [Axitinib]	0
COc1cc(Nc2c(C#N)cnc3cc(OCCCN4CCN(C)CC4)c(OC)cc23)c(Cl)cc1Cl [Bosutinib]	0
O=C(c1ccc(F)c(F)c1Nc1ccc(I)cc1F)N1CC(O)([C@@H]2CCCCN2)C1 [Cobimetinib]	0

same assay, conditions: 2.5XCmax; DMSO treated samples set as 1

SMILES	ROS measured by CM-H2DCFDA at 2.5XCmax
CNC(=O)c1ccccc1Sc1ccc2c(/C=C/c3ccccn3)n[nH]c2c1 [Axitinib]	0
COc1cc(Nc2c(C#N)cnc3cc(OCCCN4CCN(C)CC4)c(OC)cc23)c(Cl)cc1Cl [Bosutinib]	0
O=C(c1ccc(F)c(F)c1Nc1ccc(I)cc1F)N1CC(O)([C@@H]2CCCCN2)C1 [Cobimetinib]	0

same assay, conditions: 5XCmax; DMSO treated samples set as 1

SMILES	ROS measured by CM-H2DCFDA at 5XCmax
CNC(=O)c1ccccc1Sc1ccc2c(/C=C/c3ccccn3)n[nH]c2c1 [Axitinib]	0
COc1cc(Nc2c(C#N)cnc3cc(OCCCN4CCN(C)CC4)c(OC)cc23)c(Cl)cc1Cl [Bosutinib]	0
O=C(c1ccc(F)c(F)c1Nc1ccc(I)cc1F)N1CC(O)([C@@H]2CCCCN2)C1 [Cobimetinib]	0

same assay, conditions: 10XCmax; DMSO treated samples set as 1

SMILES	ROS measured by CM-H2DCFDA at 10XCmax
CNC(=O)c1ccccc1Sc1ccc2c(/C=C/c3ccccn3)n[nH]c2c1 [Axitinib]	0
COc1cc(Nc2c(C#N)cnc3cc(OCCCN4CCN(C)CC4)c(OC)cc23)c(Cl)cc1Cl [Bosutinib]	0
O=C(c1ccc(F)c(F)c1Nc1ccc(I)cc1F)N1CC(O)([C@@H]2CCCCN2)C1 [Cobimetinib]	0

same assay, conditions: 20XCmax; DMSO treated samples set as 1

SMILES	ROS measured by CM-H2DCFDA at 20XCmax
CNC(=O)c1ccccc1Sc1ccc2c(/C=C/c3ccccn3)n[nH]c2c1 [Axitinib]	0
COc1cc(Nc2c(C#N)cnc3cc(OCCCN4CCN(C)CC4)c(OC)cc23)c(Cl)cc1Cl [Bosutinib]	0
O=C(c1ccc(F)c(F)c1Nc1ccc(I)cc1F)N1CC(O)([C@@H]2CCCCN2)C1 [Cobimetinib]	0

same assay, conditions: 30XCmax; DMSO treated samples set as 1

SMILES	ROS measured by CM-H2DCFDA at 30XCmax
CNC(=O)c1ccccc1Sc1ccc2c(/C=C/c3ccccn3)n[nH]c2c1 [Axitinib]	0
COc1cc(Nc2c(C#N)cnc3cc(OCCCN4CCN(C)CC4)c(OC)cc23)c(Cl)cc1Cl [Bosutinib]	0
O=C(c1ccc(F)c(F)c1Nc1ccc(I)cc1F)N1CC(O)([C@@H]2CCCCN2)C1 [Cobimetinib]	0

same assay, conditions: 50XCmax; DMSO treated samples set as 1

SMILES	ROS measured by CM-H2DCFDA at 50XCmax
CNC(=O)c1ccccc1Sc1ccc2c(/C=C/c3ccccn3)n[nH]c2c1 [Axitinib]	0
COc1cc(Nc2c(C#N)cnc3cc(OCCCN4CCN(C)CC4)c(OC)cc23)c(Cl)cc1Cl [Bosutinib]	0
O=C(c1ccc(F)c(F)c1Nc1ccc(I)cc1F)N1CC(O)([C@@H]2CCCCN2)C1 [Cobimetinib]	0

same assay, conditions: 100XCmax; DMSO treated samples set as 1

SMILES	ROS measured by CM-H2DCFDA at 100XCmax
CNC(=O)c1ccccc1Sc1ccc2c(/C=C/c3ccccn3)n[nH]c2c1 [Axitinib]	0
COc1cc(Nc2c(C#N)cnc3cc(OCCCN4CCN(C)CC4)c(OC)cc23)c(Cl)cc1Cl [Bosutinib]	0
O=C(c1ccc(F)c(F)c1Nc1ccc(I)cc1F)N1CC(O)([C@@H]2CCCCN2)C1 [Cobimetinib]	0

test system: not given; experiment: not given; parameters: method as in product labeling; details: BBW: black box warning; W&P: Warnings and Precautions; ref product labeling; cited from earlier work

SMILES	Labeling for cardiotoxicity
CNC(=O)c1ccccc1Sc1ccc2c(/C=C/c3ccccn3)n[nH]c2c1 [Axitinib]	W&P: Cardiac Failure

same assay, conditions: ref product labeling; cited from earlier work

SMILES	Potential for cardiotoxicity (based on labeling)
CNC(=O)c1ccccc1Sc1ccc2c(/C=C/c3ccccn3)n[nH]c2c1 [Axitinib]	1
COc1cc(Nc2c(C#N)cnc3cc(OCCCN4CCN(C)CC4)c(OC)cc23)c(Cl)cc1Cl [Bosutinib]	0

test system: not given; experiment: not given; details: BBW: black box warning; W&P: Warnings and Precautions; ref product labeling; cited from earlier work; remark: another data set of the same source

SMILES	Labeling for cardiotoxicity
O=C(c1ccc(F)c(F)c1Nc1ccc(I)cc1F)N1CC(O)([C@@H]2CCCCN2)C1 [Cobimetinib]	W&P: Cardiomyopathy

same assay, conditions: ref product labeling; cited from earlier work

SMILES	Potential for cardiotoxicity (based on labeling)
O=C(c1ccc(F)c(F)c1Nc1ccc(I)cc1F)N1CC(O)([C@@H]2CCCCN2)C1 [Cobimetinib]	1

test system: isolated rat liver mitochondria; experiment: not given; details: 1XCmax; positive control alamethicin treated samples

SMILES	Cytochrome c release 1XCmax
CNC(=O)c1ccccc1Sc1ccc2c(/C=C/c3ccccn3)n[nH]c2c1 [Axitinib]	0
COc1cc(Nc2c(C#N)cnc3cc(OCCCN4CCN(C)CC4)c(OC)cc23)c(Cl)cc1Cl [Bosutinib]	0
O=C(c1ccc(F)c(F)c1Nc1ccc(I)cc1F)N1CC(O)([C@@H]2CCCCN2)C1 [Cobimetinib]	0

same assay, conditions: 2.5XCmax; positive control alamethicin treated samples

SMILES	Cytochrome c release 2.5XCmax
CNC(=O)c1ccccc1Sc1ccc2c(/C=C/c3ccccn3)n[nH]c2c1 [Axitinib]	0
COc1cc(Nc2c(C#N)cnc3cc(OCCCN4CCN(C)CC4)c(OC)cc23)c(Cl)cc1Cl [Bosutinib]	0
O=C(c1ccc(F)c(F)c1Nc1ccc(I)cc1F)N1CC(O)([C@@H]2CCCCN2)C1 [Cobimetinib]	0

same assay, conditions: 5XCmax; positive control alamethicin treated samples

SMILES	Cytochrome c release 5XCmax
CNC(=O)c1ccccc1Sc1ccc2c(/C=C/c3ccccn3)n[nH]c2c1 [Axitinib]	0
COc1cc(Nc2c(C#N)cnc3cc(OCCCN4CCN(C)CC4)c(OC)cc23)c(Cl)cc1Cl [Bosutinib]	0
O=C(c1ccc(F)c(F)c1Nc1ccc(I)cc1F)N1CC(O)([C@@H]2CCCCN2)C1 [Cobimetinib]	0

same assay, conditions: 10XCmax; positive control alamethicin treated samples

SMILES	Cytochrome c release 10XCmax
CNC(=O)c1ccccc1Sc1ccc2c(/C=C/c3ccccn3)n[nH]c2c1 [Axitinib]	0
COc1cc(Nc2c(C#N)cnc3cc(OCCCN4CCN(C)CC4)c(OC)cc23)c(Cl)cc1Cl [Bosutinib]	0
O=C(c1ccc(F)c(F)c1Nc1ccc(I)cc1F)N1CC(O)([C@@H]2CCCCN2)C1 [Cobimetinib]	0

same assay, conditions: 20XCmax; positive control alamethicin treated samples

SMILES	Cytochrome c release 20XCmax
CNC(=O)c1ccccc1Sc1ccc2c(/C=C/c3ccccn3)n[nH]c2c1 [Axitinib]	0
COc1cc(Nc2c(C#N)cnc3cc(OCCCN4CCN(C)CC4)c(OC)cc23)c(Cl)cc1Cl [Bosutinib]	0
O=C(c1ccc(F)c(F)c1Nc1ccc(I)cc1F)N1CC(O)([C@@H]2CCCCN2)C1 [Cobimetinib]	0

same assay, conditions: 30XCmax; positive control alamethicin treated samples

SMILES	Cytochrome c release 30XCmax
CNC(=O)c1ccccc1Sc1ccc2c(/C=C/c3ccccn3)n[nH]c2c1 [Axitinib]	0
COc1cc(Nc2c(C#N)cnc3cc(OCCCN4CCN(C)CC4)c(OC)cc23)c(Cl)cc1Cl [Bosutinib]	0
O=C(c1ccc(F)c(F)c1Nc1ccc(I)cc1F)N1CC(O)([C@@H]2CCCCN2)C1 [Cobimetinib]	0

same assay, conditions: 50XCmax; positive control alamethicin treated samples

SMILES	Cytochrome c release 50XCmax
CNC(=O)c1ccccc1Sc1ccc2c(/C=C/c3ccccn3)n[nH]c2c1 [Axitinib]	0
COc1cc(Nc2c(C#N)cnc3cc(OCCCN4CCN(C)CC4)c(OC)cc23)c(Cl)cc1Cl [Bosutinib]	0
O=C(c1ccc(F)c(F)c1Nc1ccc(I)cc1F)N1CC(O)([C@@H]2CCCCN2)C1 [Cobimetinib]	0

same assay, conditions: 100XCmax; positive control alamethicin treated samples

SMILES	Cytochrome c release 100XCmax
CNC(=O)c1ccccc1Sc1ccc2c(/C=C/c3ccccn3)n[nH]c2c1 [Axitinib]	0
COc1cc(Nc2c(C#N)cnc3cc(OCCCN4CCN(C)CC4)c(OC)cc23)c(Cl)cc1Cl [Bosutinib]	0
O=C(c1ccc(F)c(F)c1Nc1ccc(I)cc1F)N1CC(O)([C@@H]2CCCCN2)C1 [Cobimetinib]	0

From publication PMC5515969, “Effects of 31 FDA approved small-molecule kinase inhibitors on isolated rat liver mitochondria” (Archives of Toxicology, 2016)
